Values after ≈ are worked out from the molar mass of the structure shown.
Columns and labels:
Assay in all cases: Trace liquid-based dilution MIC
Format in all cases: cell-based
Trichophyton rubrum tia = conditions: MIC80 (OD 630 nm reduced by 80% or more), 30° C., 7 days; for MIC: Trichophyton rubrum, 168 h, read-out: In vitro Bacteriostatic Activity (MIC) Trichophyton rubrum tia
Excerpt: (§1) Trichophyton rubrum, microsporum gypseum, and trichophyton mentagrophytes were activated with a Sabouraud glucose agar culture medium, and the concentration of spores was adjusted with an RPM11640 culture solution to 1×10^35×10^3 CFU/mL.
(§2) In the present experiment, the minimum inhibitory concentrations of the ethanol extract of rhizoma anemarrhenae and the timosaponin enzymatically transformed product against five common pathogenic fungi were detected by through a trace liquid-based dilution method recommended by the Clinical and Laboratory Standards Institute and the Chinese pharmacopoeia. Fluconazole was used as a positive control drug.
(§3) A specific experimental method is as follows: candida albicans, cryptococcus neoformans, trichophyton rubrum, trichophyton mentagrophytes, and microsporum gypseum were inoculated to a 96-well plate, respectively. The drug with different concentrations was added to the culture, wherein final concentrations of the drug were 64 mg/L, 32 mg/L, 16 mg/L, 8 mg/L, 4 mg/L, 2 mg/L, 1 mg/L, and 0.5 mg/L, respectively. Fungi treated without drug was used as positive control. The candida albicans was cultured at 35° C. for 24 hours while the cryptococcus neoformans was cultured at 35° C. for 72 hours and the trichophyton rubrum, the trichophyton mentagrophytes, and the microsporum gypseum were cultured at 30° C. for 7 days. The OD value of each well under the wavelength of 630 nm was measured using an microplate reader. The lowest drug concentration with an OD value reduced by 80% or more compared with the positive control wells was considered as MIC8o, namely the drug concentration inducing 80% inhibition against fungus growth was inhibited by 80%. When the MIC80 value of the drug was higher than the maximum concentration of 64 mg/L, “>64 mg/L” was recorded.

Microsporum gypseum mzc = conditions: MIC80 (OD 630 nm reduced by 80% or more), 30° C., 7 days; for MIC: Nannizzia gypsea, 168 h, read-out: In vitro Bacteriostatic Activity (MIC) Microsporum gypseum mzc
Excerpt: as §1, §2, §3

[1] = system: trichophyton mentagrophytes t5a; conditions: MIC80 (OD 630 nm reduced by 80% or more), 30° C., 7 days; for MIC: Trichophyton mentagrophytes, T5A, 168 h, read-out: In vitro Bacteriostatic Activity (MIC) trichophyton mentagrophytes t5a
Excerpt: as §1, §2, §3

[2] = system: Cryptococcus neoformans 32609; conditions: MIC80 (OD 630 nm reduced by 80% or more), 35° C., 72 hours, read-out: In vitro Bacteriostatic Activity (MIC) Cryptococcus neoformans 32609
Excerpt: (§4) Spherical bacteria such as cryptococcus neoformans and candida albicans were taken, and activated with YEPD culture solution, and then the concentration of the bacteria solution was adjusted with RPM11640 culture solution to 1×10^3˜5 ×10^3 CFU/mL.
as §2, §3

C. albicans SC5314 = conditions: Candida albicans, MIC80 (OD 630 nm reduced by 80% or more), 35° C., 24 hours, read-out: In vitro Bacteriostatic Activity (MIC) C. albicans SC5314
Excerpt: as §4, §2, §3

C. albicans Y0109 = conditions: Candida albicans, MIC80 (OD 630 nm reduced by 80% or more), 35° C., 24 hours, read-out: In vitro Bacteriostatic Activity (MIC) C. albicans Y0109
Excerpt: as §4, §2, §3

| MIC (Trichophyton rubrum tia) [µg/mL] | MIC (Microsporum gypseum mzc) [µg/mL] | MIC [1] [µg/mL] | MIC [2] [µg/mL] | MIC (C. albicans SC5314) [µg/mL] | MIC (C. albicans Y0109) [µg/mL] | Structure (SMILES) | In vitro Bacteriostatic Activity (MIC) Trichophyton rubrum tia (Trichophyton rubrum tia; listed as timosaponin Alll) [µg/mL] | In vitro Bacteriostatic Activity (MIC) Microsporum gypseum mzc (Microsporum gypseum mzc; listed as timosaponin Alll) [µg/mL] | In vitro Bacteriostatic Activity (MIC) trichophyton mentagrophytes t5a ([1]; listed as timosaponin Alll) [µg/mL] |
| --- | --- | --- | --- | --- | --- | --- | --- | --- | --- |
| 2 (≈ 6.53 µM) | 8 (≈ 26.1 µM) | 32 (≈ 104 µM) | 1 (≈ 3.27 µM) | 0.5 (≈ 1.63 µM) | 1 (≈ 3.27 µM) | OC(Cn1cncn1)(Cn1cncn1)c1ccc(F)cc1F [fluconazole] |  |  |  |
| 2 (≈ 2.85 µM) | 0.25 (≈ 0.357 µM) | 0.25 (≈ 0.357 µM) | 0.25 (≈ 0.357 µM) | 0.5 (≈ 0.713 µM) | 1 (≈ 1.43 µM) | CC[C@@H]([C@H](C)O)n1ncn(-c2ccc(N3CCN(c4ccc(OC[C@@H]5CO[C@@](Cn6cncn6)(c6ccc(F)cc6F)C5)cc4)CC3)cc2)c1=O [posaconazole] |  |  |  |

| Structure (SMILES) | MIC (Trichophyton rubrum tia) [µg/mL] | MIC (Microsporum gypseum mzc) [µg/mL] | MIC [1] [µg/mL] | MIC [2] [µg/mL] | MIC (C. albicans SC5314) [µg/mL] | MIC (C. albicans Y0109) [µg/mL] | In vitro Bacteriostatic Activity (MIC) Trichophyton rubrum tia (Trichophyton rubrum tia; listed as timosaponin Alll) [µg/mL] | In vitro Bacteriostatic Activity (MIC) Microsporum gypseum mzc (Microsporum gypseum mzc; listed as timosaponin Alll) [µg/mL] | In vitro Bacteriostatic Activity (MIC) trichophyton mentagrophytes t5a ([1]; listed as timosaponin Alll) [µg/mL] |
| --- | --- | --- | --- | --- | --- | --- | --- | --- | --- |
| C[C@H]1CC[C@@]2(OC1)O[C@H]1C[C@H]3[C@@H]4CC[C@@H]5C[C@@H](O[C@@H]6O[C@H](CO)[C@H](O)[C@H](O)[C@H]6O[C@@H]6O[C@H](CO)[C@@H](O)[C@H](O)[C@H]6O)CC[C@]5(C)[C@H]4CC[C@]3(C)[C@H]1[C@@H]2C [timosaponin AIII] | 4 (≈ 5.4 µM) | 4 (≈ 5.4 µM) | 4 (≈ 5.4 µM) | 4 (≈ 5.4 µM) | 4 (≈ 5.4 µM) | 4 (≈ 5.4 µM) | 2 | 2 | 2 |
